Experimental data published in patent US20060121040A1, “Compositions and methods for treating neuroendocrine tumors” (Wisconsin Alumni Research Foundation, priority 2004, published 2006).
Entries after “also recorded” stand apart in the source; their conditions may differ. Like-named read-outs stand apart in the source and are kept apart here.

Experiments:
[1] = test system: human achaete-scute homolog-1 (hASH1); assay: NE marker hASH1 in medullary thyroid cancer TT cells; type: cell-based; details: SB216763 0-50 μM
chromogranin A (CgA) = assay: NE marker chromogranin A in medullary thyroid cancer TT cells; type: cell-based, human; details: SB216763 0-50 μM
[2] = test system: medullary thyroid cancer TT cells; assay: Cellular growth of medullary thyroid cancer cells; type: cell-based, human
BON cells [3] = assay: Cytotoxicity assay (Cell Titer Glo), BON cells; type: cell-based, human; details: 72 hours, ZM336372 tested 0 to 200 μmol/L
Protocol: (§1) Cells (H727 and BON) were harvested by trypsinization and plated at a cell density of 3,000 cells per well of each microtiter plate. Cells were grown for 4 hours at 37° C. to allow cell attachment to occur before compound addition. Doxorubicin (control) and ZM336372 were dissolved in DMSO. […] Treatments were done in duplicate. Cells were incubated with the test compounds for 72 hours before reading the assay. Then processing and calculation were done according to manufacturer's directions for Cell Titer Glo Assay (Promega, Madison, Wis.).

Raf-1/MEK/ERK system [4] = assay: Western analysis for Raf-1 pathway activation in H727 cells; type: cell-based, human
Protocol: (§2) H727 and BON cells were plated at 50% to 60% confluence in 100-mm cell culture dishes and incubated overnight. Cells were treated with ZM336372 (BioMol, Plymouth Meeting, Pa.) in different concentrations for up to 6 days. Of note, treatments were done in serum-containing medium. Furthermore, the DMSO concentration never exceeded 2% in all treatment groups. ZM336372 at 500 μmol/L concentrations were used only in the toxicity experiments. Stock ZM336372 was made at higher concentration to reduce DMSO toxicity.

H727 cells [5] = assay: Cytotoxicity assay (Cell Titer Glo), H727 cells; type: cell-based, human; details: ZM336372 tested 0 to 200 μmol/L
Protocol: as §1

chromogranin A [6] = assay: Western analysis of chromogranin A in BON cells; type: cell-based, human; details: 20 and 100 μmol/L, 2 d
Protocol: as §2
(§3) Changes in chromogranin A levels are known to be concordant with alterations in other neuroendocrine hormones such as histamine and serotonin (Sippel & Chen, Surgery 2002;132:1035-9). Additionally, hASH1 is expressed in most neuroendocrine tumors and correlates with neuroendocrine hormone levels as previously described. Therefore, to determine if ZM336372 can reduce chromogranin A and hASH1, pulmonary H727 and gastrointestinal BON carcinoid cells were treated with ZM336372. […] Furthermore, to determine when chromogranin A depletion occurs, H727 cells were treated with ZM336372 at different time intervals.

H727 cells [7] = assay: Cell proliferation assay (MTT) in H727 cells; type: cell-based, human; details: 100 μmol/L vs DMSO, up to 16 days, serum-containing medium
Protocol: (§4) Cells were trypsinized and plated in triplicate to 24-well plates and allowed to adhere overnight. […] Media were changed every 2 days with new treatment. […] Absorbance was determined using spectrophotometer at a wavelength of 540 nm.

hASH1 [8] = assay: Western analysis of hASH1 in BON cells; type: cell-based, human; details: 20 and 100 μmol/L, 2 d
Protocol: as §2, §3

chromogranin A [9] = assay: Western analysis of chromogranin A in H727 cells; type: cell-based, human
Protocol: as §2, §3

BON cells [10] = assay: Drug toxicity assay, propidium iodide exclusion, BON cells; type: cell-based, human; details: 63 to 500 μmol/L, 2 days
Protocol: (§5) Briefly, cells were trypsinized and plated in a 6-well plate at 1 to 2×10^6 in triplicate and allowed to adhere overnight. Then the media was replaced with fresh media containing various concentrations (31.25, 62.5, 125, 250, and 500 μmol/L) of ZM336372 and incubated for up to 3 days. As a control, DMSO was added. After incubation, the medium was removed and cells were trypsinized and added to removed medium. Cells were incubated on ice and 2.5 Ag/mL propidium iodide (Sigma) was added 5 minutes before flow cytometry (17). Data was acquired using a FACSCalibur bench top flow cytometer (Becton Dickinson, San Jose, Calif.) using CellQuest acquisition and analysis software.

H727 cells [11] = assay: Drug toxicity assay, propidium iodide exclusion, H727 cells; type: cell-based, human
Protocol: as §5, with “Then the media was replaced with fresh media containing various concentrations (31.25, 62.5, 125, 250, and 500 μmol/L) of ZM336372 and incubated for up to 3 days.” left out

p21 = assay: Western analysis of cell cycle inhibitor p21 in H727 cells; type: cell-based, human; details: 20 and 100 μmol/L, 2 days
Protocol: (§6) Cellular extracts were prepared and quantified by bicinchoninic acid protein assay kit (Pierce, Rockford, Ill.) as previously described (Sippel & Chen, Surgery 2002;132:1035-9). Denatured proteins (30-50 μg) from each sample underwent electrophoresis on a SDS polyacrylamide gel and transferred to a nitrocellulose membranes (Schleicher and Schuell, Keene, N.H.). Membranes were blocked for 1 hour in milk solution (1×PBS, 5% nonfat dry milk, 0.05% Tween 20) and incubated at 4° C. overnight with primary antibodies. The following primary antibody dilutions were used: phospho-ERK1/2 (1:1,000), phospho-MEK (1:1,000), phospho-Raf-1 (Ser338; 1:1,000), p21 and p18, (1:1,000) (Cell Signaling Technology, Beverly, Mass.), Chromogranin A (1:2,000; Zymed Laboratories, San Francisco, Calif.), MASH-1 (1:1000, BD Pharmingen, San Diego, Calif.), and G3PDH (1:10,000; Trevigen, Gaithersburg, Md.). After primary antibody incubation, membranes were washed 3×5 minutes in PBS-T wash buffer (1×PBS and 0.05% Tween 20). Then the membranes were incubated with either 1:2,000 dilution of goat anti-rabbit or goat anti-mouse secondary antibody (Cell Signaling Technology) depending on the source of the primary antibody for 1 hour at room temperature. […]

Raf-1/MEK/ERK system [12] = assay: Western analysis for Raf-1 pathway activation in BON cells; type: cell-based, human; details: increasing doses (20 and 100 μmol/L), 2 d
Protocol: as §2

hASH1 [13] = assay: Western analysis of hASH1 in H727 cells; type: cell-based, human
Protocol: as §2, §3

p18 = assay: Western analysis of cell cycle inhibitor p18 in H727 cells; details: 20 and 100 μmol/L, 2 days
Protocol: as §6

ERK1/2 = assay: Phosphorylated ERK1/2 in NE tumor cells (BON and TT) treated with ZM336372 (FIG. 7); type: cell-based, human; details: ZM336372 0-50 μM
GSK3B = molecular target: T1, GSK3B (Homo sapiens, UniProt P49841); assay: Phosphorylated GSK3B in NE tumor cells (BON and TT) treated with ZM336372 (FIG. 7); type: cell-based; details: ZM336372 0-50 μM
T1 construct: treatment of NE tumor cells with ZM336372 (0-50 μM); endogenous in cells; host or cells: BON and TT cells
T1 sequence (P49841 whole entry): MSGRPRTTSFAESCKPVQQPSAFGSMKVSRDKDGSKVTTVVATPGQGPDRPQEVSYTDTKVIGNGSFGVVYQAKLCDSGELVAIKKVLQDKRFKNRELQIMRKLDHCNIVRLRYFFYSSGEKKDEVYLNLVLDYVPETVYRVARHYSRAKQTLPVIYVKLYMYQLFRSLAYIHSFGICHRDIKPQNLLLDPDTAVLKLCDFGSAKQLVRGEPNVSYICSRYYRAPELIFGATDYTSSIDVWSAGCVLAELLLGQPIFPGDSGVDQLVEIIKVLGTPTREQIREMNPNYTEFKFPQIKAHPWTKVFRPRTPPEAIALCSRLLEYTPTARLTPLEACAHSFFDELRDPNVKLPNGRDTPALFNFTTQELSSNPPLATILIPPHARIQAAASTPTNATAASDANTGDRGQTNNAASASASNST

BON cells [14] = assay: Cell proliferation assay (MTT) in BON cells; type: cell-based, human; details: 100 μmol/L vs DMSO, day 4 to day 10
Protocol: as §4

Question: Which hASH1 [1] does the source give for `Cn1cc(C2=C(c3ccc(Cl)cc3Cl)C(=O)NC2=O)c2ccccc21` [SB216763] here?
Answer: The hASH1 was “suppression; also recorded: reduction”.

Question: And the “chromogranin A production” value (chromogranin A (CgA))?
Answer: The value was “suppression; also recorded: reduction”.

Question: What about the TT cell growth ([2]; SB216763 0-50 μM) of the same molecule?
Answer: Its TT cell growth is “suppression”.

Question: How did the IC50 (BON cells [3]) turn out when `Cc1ccc(NC(=O)c2cccc(N(C)C)c2)cc1NC(=O)c1ccc(O)cc1` [ZM336372] was run?
Answer: Its IC50 is “did not produce enough cellular cytotoxicity to estimate an IC50”.

Question: What about the “MEK1/2 phosphorylation at days 4 and 6” value (Raf-1/MEK/ERK system [4]; 100 μmol/L) of the same molecule?
Answer: The value was “sustained; also recorded: greater than controls out to 6 d”.

Question: And the “Raf-1 phosphorylation at Ser338” value (Raf-1/MEK/ERK system [4]; 20 and 100 μmol/L, 2 days)?
Answer: The value was “phosphorylated; also recorded: dose-dependent increases”.

Question: What about the “MEK1/2 and ERK1/2 phosphorylation” value (Raf-1/MEK/ERK system [4]; 20 and 100 μmol/L, 2 days, vs DMSO) of the same molecule?
Answer: Its value is “activation; also recorded: dose-dependent increases”.

Question: What about the IC50 (H727 cells [5]; 72 hours) of the same molecule?
Answer: Its IC50 is “did not produce enough cellular cytotoxicity to estimate an IC50”.

Question: What about the “chromogranin A level” value (chromogranin A [6]) of the same molecule?
Answer: Its value is “reduction; also recorded: dose-dependent decrease”.

Question: And the cell proliferation (H727 cells [7])?
Answer: Its cell proliferation is “growth suppressed; also recorded: inhibited”.

Question: What about the hASH1 level (hASH1 [8]) of the same molecule?
Answer: The hASH1 level was “reduction; also recorded: dose-dependent decrease”.

Question: What about the “time of greatest comparative loss of chromogranin A” value (chromogranin A [9]; 100 μmol/L) of the same molecule?
Answer: The value was 48 h.

Question: And the “lasting effect on chromogranin A (days 2, 4 and 6)” value (chromogranin A [9]; 100 μmol/L vs DMSO)?
Answer: Its value is “maintained to 6 days; also recorded: persistent reduction”.

Question: What about the “earliest detection of reduction of chromogranin A” value (chromogranin A [9]; 100 μmol/L, 10 min, 1, 12, 24, 48 h) of the same molecule?
Answer: The value was 1 h.

Question: And the “chromogranin A level” value (chromogranin A [9]; 20 and 100 μmol/L, 2 d)?
Answer: The value was “reduction; also recorded: dose-dependent decrease”.

Question: What about the cells remaining viable (BON cells [10]) of the same molecule?
Answer: Its cells remaining viable is roughly 70%.

Question: And the “growth of other neuroendocrine tumor cell lines” value ([2]; ZM336372, medullary thyroid cancer cells, data not shown)?
Answer: Its value is “inhibited growth”.

Question: What about the cytolysis (H727 cells [11]; 20-100 μmol/L) of the same molecule?
Answer: The cytolysis was less than 20%.

Question: What about the viability (H727 cells [11]; H727, 20 to 100 μmol/L vs DMSO, 2 d) of the same molecule?
Answer: The viability was “significant viability was maintained”.

Question: And the p21 expression (p21)?
Answer: Its p21 expression is “induced; also recorded: significant induction”.

Question: What about the “ERK1/2 and MEK1/2 phosphorylation” value (Raf-1/MEK/ERK system [12]) of the same molecule?
Answer: Its value is “strong activation; also recorded: dose-dependent increases”.

Question: And the “first recognized reduction in hASH1” value (hASH1 [13]; 100 μmol/L)?
Answer: Its value is 1 h.

Question: What about the hASH1 level (hASH1 [13]; 20 and 100 μmol/L, 2 d) of the same molecule?
Answer: The hASH1 level was “reduction; also recorded: dose-dependent decrease”.

Question: And the p18 expression (p18)?
Answer: Its p18 expression is “induced; also recorded: significant induction”.

Question: And the “levels of phosphorylated ERK1/2” value (ERK1/2)?
Answer: Its value is “increased levels”.

Question: What about the “levels of phosphorylated GSK3B” value (GSK3B) of the same molecule?
Answer: The value was “increased levels”.

Question: What about the cell proliferation (BON cells [14]) of the same molecule?
Answer: Its cell proliferation is “growth suppression; also recorded: inhibited”.

Question: Which IC50 (BON cells [3]; Homo sapiens, read-out: IC50) does the source give for `COc1cccc2c1C(=O)c1c(O)c3c(c(O)c1C2=O)C[C@@](O)(C(=O)CO)C[C@@H]3O[C@H]1C[C@H](N)[C@H](O)[C@H](C)O1` [doxorubicin] here?
Answer: The IC50 was 1.4 µM.

Question: What about the IC50 (H727 cells [5]; Homo sapiens, NCI-H727, 72 hours, read-out: IC50) of the same molecule?
Answer: The IC50 was 1.1 µM.
